Source: paper PMC10322960 (European Journal of Drug Metabolism and Pharmacokinetics, 2023)

Test: Phase 1 clinical drug–drug interaction study, safety assessment
Assay type: in vivo, human
Details: Cohort 1, 12 subjects; mild in severity

## CCC(C)n1ncn(-c2ccc(N3CCN(c4ccc(OCC5COC(Cn6cncn6)(c6ccc(Cl)cc6Cl)O5)cc4)CC3)cc2)c1=O (centres unmarked) [itraconazole, reference compound]
  number of treatment-emergent AEs considered related to the drug: 5
  subjects with treatment-emergent AEs considered related to the drug: 16.7%
